Tests used:
[1] = tested on: mitochondrial respiration (OCR) in intact U87MG cells; experiment: Intact cell mitochondrial respiration (basal OCR), Seahorse XF-96; format: cell-based, human; details: 24 h treatment
Description: (§1) Mitochondrial oxygen consumption was measured using the Seahorse XF-96 Extracellular Flux Analyzer (Agilent, North Billerica, MA)[3],[33],[67],[68]. To determine the intact cell mitochondrial function of MiaPaCa-2 cells in response to Mito-PEG-ATO analogs, we used the bioenergetic function assay previously described[2],[3]. […] From these measurements, indices of mitochondrial function were determined as previously described[2],[3]. For mitochondrial complex activities assays, after cells were treated with Mito-PEG-ATO analogs for 24 h, the OCR-based assessment of mitochondrial complex activities was carried out on acutely permeabilized cells in the presence of different mitochondrial substrates, i.e., pyruvate/malate for complex I and duroquinol for complex III[3],[32],[34],[69]. Rotenone, malonate, and antimycin A (Sigma-Aldrich, St. Louis, MO) were used as specific inhibitors of mitochondrial complexes I, II, and III, respectively. […] The IC50 values were determined as previously reported.
Figure S8. […] (b) After eight baseline OCR measurements, the response to mitochondrial modulators (oligomycin, dinitrophenol, and rotenone/antimycin A as described in the Methods section) were recorded. The last three stable baseline OCR reading before oligomycin injection was plotted against the concentration of Mito-PEG4-ATO (red open box). […]

U87MG cells = experiment: Basal extracellular acidification rate (ECAR) in intact cells; format: cell-based, human
MiaPaCa-2 cells [2] = experiment: as above; format: cell-based, human; details: 24 h treatment
Description: as §1, with “respectively. Briefly, cells that were intact after treatments were immediately permeabilized using the Seahorse XF Plasma Membrane Permeabilizer (Agilent). The mitochondrial complex I-induced OCR was assayed in mannitol and sucrose buffer[69] containing 10 mM pyruvate and 1.5 mM malate (substrates for complex I) and 10 mM malonate (which inhibits complex II activities).” for “respectively.”, “reported. […]” for “reported.”

MiaPaCa-2 cells [3] = experiment: Cell proliferation (cell confluence), IncuCyte Live-Cell Analysis System; format: cell-based, human; details: for Cell confluence (% of control): MiaPaCa-2 cells, control ~90% confluence
In short: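 MiaPaCa-2 cells in DMEM with 10% FBS, plated at 1,000 cells/well in triplicate and adhered overnight, then treated with Mito-PEG-ATO analogs. Confluence imaged label-free over several days, increase in percent confluence serving as proliferation surrogate.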

[4] = biological target: mitochondrial complex III (MiaPaCa-2 cells) (Homo sapiens, UniProt P00156); experiment: Complex III-dependent oxygen consumption in permeabilized cells, Seahorse XF-96; format: cell-based
mitochondrial complex III (MiaPaCa-2 cells), sequence (P00156 whole entry): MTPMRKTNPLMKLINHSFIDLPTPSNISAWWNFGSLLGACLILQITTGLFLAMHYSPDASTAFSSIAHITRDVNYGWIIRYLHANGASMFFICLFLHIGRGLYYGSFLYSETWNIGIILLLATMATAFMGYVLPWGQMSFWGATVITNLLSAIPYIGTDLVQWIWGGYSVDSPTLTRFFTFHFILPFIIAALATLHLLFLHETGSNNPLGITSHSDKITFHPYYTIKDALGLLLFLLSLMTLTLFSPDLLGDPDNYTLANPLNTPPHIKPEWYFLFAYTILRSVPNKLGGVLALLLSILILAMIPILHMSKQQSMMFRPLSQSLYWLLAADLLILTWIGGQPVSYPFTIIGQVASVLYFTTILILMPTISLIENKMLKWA
mitochondrial complex III (MiaPaCa-2 cells), sequence (P47985 whole entry partner): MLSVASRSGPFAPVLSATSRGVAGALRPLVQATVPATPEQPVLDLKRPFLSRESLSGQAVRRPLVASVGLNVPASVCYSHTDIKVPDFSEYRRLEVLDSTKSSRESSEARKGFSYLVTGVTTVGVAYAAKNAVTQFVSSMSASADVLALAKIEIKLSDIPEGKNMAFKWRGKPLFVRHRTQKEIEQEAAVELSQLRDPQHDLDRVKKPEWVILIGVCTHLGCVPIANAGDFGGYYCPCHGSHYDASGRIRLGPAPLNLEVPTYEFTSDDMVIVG
In short: (§2)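 MiaPaCa-2 cells were treated 24 h with Mito-PEG-ATO analogs, and OCR was read on a Seahorse XF-96; basal respiration was taken in intact cells. For complex I, permeabilized cells received 10 mM pyruvate, 1.5 mM malate and 10 mM malonate; for complex III, 0.5 mM duroquinol, 1 µM rotenone and 10 mM malonate, both in mannitol/sucrose buffer. IC50 values were derived from the OCR data.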

[5] = tested on: mitochondrial complex I (U87MG cells); experiment: Complex I-dependent oxygen consumption, Seahorse XF-96; format: cell-based, human
Description: as §1, with “respectively. Briefly, cells that were intact after treatments were immediately permeabilized using the Seahorse XF Plasma Membrane Permeabilizer (Agilent). The mitochondrial complex I-induced OCR was assayed in mannitol and sucrose buffer[69] containing 10 mM pyruvate and 1.5 mM malate (substrates for complex I) and 10 mM malonate (which inhibits complex II activities).” for “respectively.”, “reported. […]” for “reported.”

[6] = tested on: mitochondrial respiration (OCR) in intact MiaPaCa-2 cells; experiment: Intact cell mitochondrial respiration (basal OCR), Seahorse XF-96; format: cell-based, human
In short: as §2

[7] = biological target: T1, mitochondrial complex III (U87MG cells) (Homo sapiens, UniProt P00156); experiment: Complex III-dependent oxygen consumption, Seahorse XF-96; format: cell-based
T1 construct: endogenous in cells; host or cells: U87MG (ATCC HTB-14)
T1 sequence (P00156 whole entry): as the sequence (P00156 whole entry) above
T1 sequence (P47985 whole entry partner): as the sequence (P47985 whole entry partner) above
Description: as §1, with “respectively. Briefly, cells that were intact after treatments were immediately permeabilized using the Seahorse XF Plasma Membrane Permeabilizer (Agilent). The mitochondrial complex I-induced OCR was assayed in mannitol and sucrose buffer[69] containing 10 mM pyruvate and 1.5 mM malate (substrates for complex I) and 10 mM malonate (which inhibits complex II activities).” for “respectively.”, “reported. […]” for “reported.”

For `O=C1C(OCCOCCOCCOCC[P+](c2ccccc2)(c2ccccc2)c2ccccc2)=C([C@H]2CC[C@H](c3ccc(Cl)cc3)CC2)C(=O)c2ccccc21.[Br-]` [Mito-PEG4-ATO, [2-(2-(2-(2-((3-(trans-4-(4-chlorophenyl)cyclohexyl)-1,4-dioxo-1,4-dihydronaphthalen-2-yl)oxy)ethoxy)ethoxy)ethoxy)ethyl]triphenylphosphonium bromide], the “OCR in intact cells” value [1] was “suppressed”, the ECAR (U87MG cells) was “stimulated ECAR” and the ECAR (MiaPaCa-2 cells [2]) was “stimulated ECAR”. For the same molecule, the IC50 (MiaPaCa-2 cells [3]; Homo sapiens, MIA PaCa-2, read-out: IC50, inhibition of cell proliferation) was 140 nM, the “Cell confluence (% of control)” value (MiaPaCa-2 cells [3]; 0.005 µM) was 100.53 % of control and the “Cell confluence (% of control)” value (MiaPaCa-2 cells [3]; 0.02 µM) was 101.08 % of control. The “Cell confluence (% of control)” value (MiaPaCa-2 cells [3]; 0.05 µM) was 100.72 % of control, the “Cell confluence (% of control)” value (MiaPaCa-2 cells [3]; 0.08 µM) was 98.94 % of control and the “Cell confluence (% of control)” value (MiaPaCa-2 cells [3]; 0.16 µM) was 29.68 % of control. For the same molecule, the “Cell confluence (% of control)” value (MiaPaCa-2 cells [3]; 0.32 µM) was 3.32 % of control, the “Cell confluence (% of control)” value (MiaPaCa-2 cells [3]; 0.48 µM) was 3.11 % of control and the “Cell confluence (% of control)” value (MiaPaCa-2 cells [3]; 0.8 µM) was 3.18 % of control. For the same molecule, the “Cell confluence (% of control)” value (MiaPaCa-2 cells [3]; 1.6 µM) was 2.81 % of control, the “Cell confluence (% of control)” value (MiaPaCa-2 cells [3]; 4.8 µM) was 2.52 % of control and the “Complex III activity (OCR, % of control)” value ([4]; 0.02 µM) was 98.8 % of control. The “Complex III activity (OCR, % of control)” value ([4]; 0.05 µM) was 96.0 % of control, the “Complex III activity (OCR, % of control)” value ([4]; 0.08 µM) was 99.9 % of control and the “Complex III activity (OCR, % of control)” value ([4]; 0.16 µM) was 96.5 % of control. For the same molecule, the “Complex III activity (OCR, % of control)” value ([4]; 0.32 µM) was 90.1 % of control, the “Complex III activity (OCR, % of control)” value ([4]; 0.5 µM) was 92.4 % of control and the “Complex III activity (OCR, % of control)” value ([4]; 0.8 µM) was 76.5 % of control. The “Complex III activity (OCR, % of control)” value ([4]; 1.6 µM) was 51.9 % of control, the “Complex III activity (OCR, % of control)” value ([4]; 5 µM) was 24.8 % of control and the IC50 ([4]; MiaPaCa-2 cells, 24 h treatment, antimycin A-inhibitable OCR, read-out: IC50, complex III-induced oxygen consumption (Complex III activity)) was 1700 nM. The “Complex I-induced oxygen consumption” value [5] was “inhibited”, the “OCR (pmol/min/µg protein)” value ([6]; 0.003 µM, 24 h treatment, intact MiaPaCa-2 cells, baseline OCR, mean, n=4) was 20.44 pmol/min/µg protein and the “OCR (basal, intact cell mitochondrial respiration)” value ([6]; 0.01 µM, 24 h treatment, intact MiaPaCa-2 cells, mean, n=4) was 17.79 pmol/min/µg protein. For the same molecule, the “OCR (basal, intact cell mitochondrial respiration)” value ([6]; 0.03 µM, 24 h treatment, intact MiaPaCa-2 cells, mean, n=4) was 17.72 pmol/min/µg protein, the “OCR (basal, intact cell mitochondrial respiration)” value ([6]; 0.05 µM, 24 h treatment, intact MiaPaCa-2 cells, mean, n=4) was 16.82 pmol/min/µg protein and the “OCR (basal, intact cell mitochondrial respiration)” value ([6]; 0.1 µM, 24 h treatment, intact MiaPaCa-2 cells, mean, n=4) was 13.38 pmol/min/µg protein. The “OCR (basal, intact cell mitochondrial respiration)” value ([6]; 0.2 µM, 24 h treatment, intact MiaPaCa-2 cells, mean, n=4) was 9.15 pmol/min/µg protein, the “OCR (basal, intact cell mitochondrial respiration)” value ([6]; 0.3 µM, 24 h treatment, intact MiaPaCa-2 cells, mean, n=4) was 6.10 pmol/min/µg protein and the “OCR (basal, intact cell mitochondrial respiration)” value ([6]; 0.5 µM, 24 h treatment, intact MiaPaCa-2 cells, mean, n=4) was 3.29 pmol/min/µg protein. For the same molecule, the “OCR (basal, intact cell mitochondrial respiration)” value ([6]; 1 µM, 24 h treatment, intact MiaPaCa-2 cells, mean, n=4) was 1.41 pmol/min/µg protein, the “OCR (basal, intact cell mitochondrial respiration)” value ([6]; 3 µM, 24 h treatment, intact MiaPaCa-2 cells, mean, n=4) was 0.43 pmol/min/µg protein and the “OCR (basal, intact cell mitochondrial respiration)” value ([6]; 10 µM, 24 h treatment, intact MiaPaCa-2 cells, mean, n=4) was 0.42 pmol/min/µg protein. The IC50 ([6]; Homo sapiens, MIA PaCa-2, 24 h, read-out: IC50, inhibition of basal OCR in intact cells) was 260 nM and the “Complex III-induced oxygen consumption” value [7] was “inhibited”.
